Experimental data published in patent publication US9862748B2, “Peptide compounds and methods of production and use thereof” (priority 2012, dated 2018).
Like-named read-outs stand apart in the source and are kept apart here. Square brackets hold non-standard residues; d marks the D form. Ends that are not written are not given here. Peptide text beside a SMILES is read from it. AEEA = NCCOCCOCC(=O)O

Tests used:
[1] = tested on: E. coli ATCC® strain 25922™; type: cell-based, Escherichia coli; set-up: unit not given here; conditions: Table 6
Method: (§1) In vitro bactericidal activity: The three peptide compounds BCC01-5RMP (SEQ ID NO: 21), BCC02-5RMP (SEQ ID NO: 22), and BCC03-5RMP (SEQ ID NO: 23) were assayed for in vitro bactericidal activity against Pseudomonas aeruginosa, Escherichia coli, Salmonella typhimurium, and Acinetobacter baumannii. The starting inoculum for all experiments was 1×10^6 colony forming units (CFU)/ml. The CFU remaining at the end of 60 to 180 minute incubation was determined, and the data plotted as a log reduction in CFU/ml.

[2] = tested on: Pseudomonas aeruginosa ATCC® 27853™; type: cell-based; set-up: Effects of Peptide Compounds on Pseudomonas aeruginosa ATCC ® 27853 ™: unit not given here; conditions: for Effects of Peptide Compounds on Pseudomonas aeruginosa ATCC ® 27853 ™: Table 6
Method: as §1
(§2) For FIGS. 10-13, in vitro bactericidal assays were performed using a starting inoculum of 1×10^6 CFU/ml of the bacterial suspension. The CFU remaining at the end of the 60-180 minute incubation was determined, and the data was plotted as log reduction in CFU/ml.
(§3) In particular, each of the test peptides (CAP37 peptides 120-146WR, 120-146WH, and 95-122 (SEQ ID NOs: 30, 31, and 26, respectively)) was used at 25, 12.5, 6.25, and 3.12 μM. Gentamicin was used at 4 μg/ml. 1×10^6/ml Acinetobacter baumannii ATCC® BAA-747™ or Pseudomonas aeruginosa ATCC® 27853™ (American Type Culture Collection, Manassas, Va.) were incubated with the peptides, negative buffer control (tryptone saline), and positive control gentamicin at pH 5.5 or 7.2. A 60 minute incubation was used for Acinetobacter baumannii ATCC® BAA-747™, while a 180 minute incubation was used for Pseudomonas aeruginosa ATCC® 27853™. 50 μl aliquots were plated out on agar plates and incubated overnight. Colony forming units were counted after overnight incubation and CFU/ml calculated.
For FIG. 14, 1×10^6/ml Pseudomonas aeruginosa ATCC® 27853™ were incubated with each of the test peptides (CAP37 peptides 120-146WR, 120-146WH, 120-146QR, 120-146QH, 120-146QR-5RMP, and 120-146QH-5RMP (SEQ ID NOs: 30, 31, 28, 29, 32, and 33, respectively)) at 150, 75, and 37.5 μg/ml, or negative buffer control (tryptone saline), for 180 minutes at pH 5.5. 50 μl aliquots were plated out on agar plates and incubated overnight. Colony forming units were counted after overnight incubation and CFU/ml calculated.

[3] = tested on: Acinetobacter baumannii ATCC® BAA-747™; type: cell-based; conditions: 25 μM
Method: as §1, §2, §3

swine skin wounds [4] = experiment: Swine dermal wound model, histological evaluation; type: in vivo; conditions: day 14 post-wounding
Method: The characteristics that were measured are required to indicate features of a well-healed wound. Inflammation should be low and re-epithelialization high.
(§4) Full thickness excisional wounds were induced on the dorsum of swine (N=3) using a 1.0 cm biopsy punch. Treatments were administered (0.20 ml) to each wound (N=6 wounds per group), and the wounds were dressed with standard occlusive dressing ([…]™, 3M Corporation, St. Paul, Minn.). Treatments were reapplied daily and dressings changed. Clinical wound healing observations and wound area (2 mm) measurements were performed on days 0, 3, 5, 7, 10, and 14 post-wounding. Wound area (2 mm) data were expressed as percentage (%) of wound healing. Animals were terminated on day 14 with wounds harvested and processed for histological evaluation. […] All peptide formulation treatment groups healed faster with greater rate of closure and re-epithelialization over time, as compared to the saline control (Group A).
The histology correlated with the clinical observations. […] There were minimal differences in the amount or character of granulation tissue, inflammation, and angiogenesis. All the wounds were well filled and vascularized.

swine skin wounds [5] = experiment: Swine full thickness excisional dermal wound model, wound area; type: in vivo
Method: In this Example, peptide compounds of the presently disclosed and claimed inventive concept(s) were evaluated as to their activity on the dermal wound healing process in a clinically relevant swine full thickness excisional wound model. Three different peptide formulations (Group B, Peptide 95-122 (SEQ ID NO: 26); Group C, Peptide 120-146WH (SEQ ID NO: 31); and Group D, Peptide 120-146QH-5RMP (SEQ ID NO: 33)) were each evaluated at the same concentration (3 mg/ml). Sterile saline served as the control (Group A).
as §4

[6] = tested on: mouse cornea (corneal epithelial abrasion); experiment: In vivo model of corneal wound healing; conditions: treated at 0 and 16 hours; 95-122 10^−5 M; 120-146WH 10^−8 M or 10^−6 M; HB-EGF 250 ng/ml
Method: The in vivo model of wound healing was carried out using a disposable biopsy punch (2 mm, Miltex, York, Pa.) to demarcate the mouse cornea and a 0.5 mm burr using the AlgerBrush II (The Alger Company, Inc., Lago Vista, Tex.) to remove the corneal epithelium.
Mice were anesthetized using ketamine (100 mg/kg; Bionichepharma, LLC., St. Lake Forrest, Ill.) and xylazine ([…]; Rompun; Bayer Corp., Shawnee Mission, Kans.), and the right cornea was wounded as follows. A disposable biopsy punch (2 mm, Miltex, York, Pa.) was used to demarcate the mouse cornea. The corneal epithelium was carefully removed within the 2 mm demarcated area with a 0.5 mm burr using the AlgerBrush II (The Alger Company, Inc., Lago Vista, Tex.). The corneal abrasions were treated at 0 and 16 hours with HB-EGF (250 ng/ml), rCAP37 (250 ng/ml), or vehicle control (0.9% sodium chloride, pH 5.5, Baxter, Deerfield, Ill.). Corneal abrasions were visualized using sterile fluorescein sodium ophthalmic strips USP (FLUORETS®, Chauvin Laboratory, Aubenas, France) dampened with sterile PBS. Images were taken at 0, 16, 24, and 48 hours immediately following fluorescein staining using a surgical microscope equipped with a camera (Carl Zeiss OPMI VISU 140, Carl Zeiss Surgical, Inc., Oberkochen, Germany). The areas of the open wound were quantitated using ImageJ software (US National Institutes of Health), and the results were reported as the percentage of wound closure.
Whole mouse eyes were collected for histology at 0, 6, 16, 24, and 48 hours post wounding and were immediately placed in Prefer fixative (Anatech LTD., Battle Creek, Mich.) for 20 minutes before being transferred to 70% ethanol. Tissues were paraffin-embedded and cut at a thickness of 5 μm, mounted on SUPERFROSTPLUS® slides (Statlab Medical Products, Lewisville, Tex.), and subsequently deparaffinized, rehydrated, and washed in deionized water. Sections were stained with hematoxylin (Leica Microsystems, Buffalo Grove, Ill.) and rinsed twice in deionized water before being washed in Blue Buffer (Leica Microsystems). The sections were finally washed in deionized water and 95% ethanol prior to being counterstained with eosin (Leica Microsystems). Sections were dehydrated in ethanol and cleared in xylene.

[7] = 3 mg/ml, 0.20 ml per wound, reapplied daily

## CC[C@H](C)[C@H](NC(=O)[C@H](CC(C)C)NC(=O)[C@H](C)NC(=O)CNC(=O)CNC(=O)[C@H](CS)NC(=O)[C@H](Cc1ccccc1)NC(=O)[C@H](Cc1c[nH]cn1)NC(=O)[C@H](CCCNC(=N)N)NC(=O)CNC(=O)[C@H](CCC(N)=O)NC(=O)[C@H](CC(N)=O)NC(=O)COCCOCCNC(=O)COCCOCCN)C(=O)N[C@@H](Cc1c[nH]cn1)C(=O)N[C@@H](C)C(=O)N[C@@H](CCCNC(=N)N)C(=O)N[C@@H](Cc1ccccc1)C(=O)N[C@H](C(=O)N[C@@H](CCSC)C(=O)N[C@H](C(=O)N[C@@H](C)C(=O)N[C@@H](C)C(=O)N[C@@H](CO)C(=O)N[C@@H](CO)C(=O)N[C@@H](Cc1ccccc1)C(=O)N[C@@H](CCC(N)=O)C(=O)O)[C@@H](C)O)C(C)C [BCC03-MP] (H-[AEEA][AEEA]NQGRHFCGGALIHARFVMTAASSFQ-OH; N-terminus and C-terminus assumed)
[1]; Peptide Conc 6.25 μg/ml
  Effects of Peptide Compounds on Escherichia coli ATCC ® 25922 ™: 6.4
[1]; Peptide Conc 200 μg/ml
  Effects of Peptide Compounds on Escherichia coli ATCC ® 25922 ™: 46.0
[2]; Peptide Conc 12.5 μg/ml
  Effects of Peptide Compounds on Pseudomonas aeruginosa ATCC ® 27853 ™: −45.6
[2]; Peptide Conc 50 μg/ml
  Effects of Peptide Compounds on Pseudomonas aeruginosa ATCC ® 27853 ™: −2.9
[2]; Peptide Conc 100 μg/ml
  Effects of Peptide Compounds on Pseudomonas aeruginosa ATCC ® 27853 ™: 44.0

## GTRCQVAGWGSWHSGGRLSRFPRFVNV [Peptide 120-146WH]
[3]
  activity against A. baumannii at 25 μM: highly active
Swine skin wounds [4]
  epidermal resurfacing and maturation of the epidermis versus saline control: greater extent of epidermal resurfacing and maturation of the epidermis
Swine skin wounds [4]; 3 mg/ml
  Histopathology Results, Mean Angiogenesis: 1.7
  Histopathology Results, Mean Epithelization: 3.7
  Histopathology Results, Mean Granulation: 4.0
  Histopathology Results, Mean Inflammation: 0.5
Swine skin wounds [5]; [7]
  Mean Wound Healing (%) Day 0: 0.0%
  Mean Wound Healing (%) Day 3: 22.1%
  Mean Wound Healing (%) Day 5: 35.9%
  Mean Wound Healing (%) Day 7: 59.7%
  Mean Wound Healing (%) Day 10: 93.5%
  Mean Wound Healing (%) Day 14: 97.5%
Swine skin wounds [5]; topical 3 mg/ml over 14 days, vs saline
  dermal wound healing: accelerate dermal wound healing
[2]; peptide at 25 VIM (so in the source), gentamicin 4 μg/ml
  effectiveness against Pseudomonas aeruginosa compared with gentamicin, pH 7.2: as effective as the standard antibiotic gentamicin
[6]
  corneal wound healing versus vehicle: significantly greater

## RRRRNQGRHFCGGALIHARFVMTAASCFQR (not fully specified; cysteine pairing not given here) [SEQ ID NO: 18 (Cyclized)]
[1]; Peptide Conc 25 μg/ml
  Effects of Peptide Compounds on Escherichia coli ATCC ® 25922 ™: 38.0
[1]; Peptide Conc 400 μg/ml
  Effects of Peptide Compounds on Escherichia coli ATCC ® 25922 ™: 82.0
[2]; Peptide Conc 3.125 μg/ml
  Effects of Peptide Compounds on Pseudomonas aeruginosa ATCC ® 27853 ™: 100.0
[2]; Peptide Conc 6.25 μg/ml
  Effects of Peptide Compounds on Pseudomonas aeruginosa ATCC ® 27853 ™: 100.0
[2]; Peptide Conc 12.5 μg/ml
  Effects of Peptide Compounds on Pseudomonas aeruginosa ATCC ® 27853 ™: 100.0
[2]; Peptide Conc 25 μg/ml
  Effects of Peptide Compounds on Pseudomonas aeruginosa ATCC ® 27853 ™: 100.0
[2]; Peptide Conc 50 μg/ml
  Effects of Peptide Compounds on Pseudomonas aeruginosa ATCC ® 27853 ™: 100.0
[2]; Peptide Conc 100 μg/ml
  Effects of Peptide Compounds on Pseudomonas aeruginosa ATCC ® 27853 ™: 100.0
[2]; Peptide Conc 200 μg/ml
  Effects of Peptide Compounds on Pseudomonas aeruginosa ATCC ® 27853 ™: 100.0
[2]; Peptide Conc 400 μg/ml
  Effects of Peptide Compounds on Pseudomonas aeruginosa ATCC ® 27853 ™: 100.0

## RRRRNQGRHFCGGALIHARFVMTAASCFQR (5-arginine peptide derivative of CAP37 peptide) [SEQ ID NO: 18 (Linear)]
[1]; Peptide Conc 262.8 μg/ml
  Effects of Peptide Compounds on Escherichia coli ATCC ® 25922 ™: 100.0
[2]; Peptide Conc 87.6 μg/ml
  Effects of Peptide Compounds on Pseudomonas aeruginosa ATCC ® 27853 ™: 100.0
